Experimental data from patent publication US20230257351A1, “SUBSTITUTED N-[…] HAVING P2X4 RECEPTOR ANTAGONISTIC ACTIVITY” (Bayer Aktiengesellschaft, priority 2020, published 2023).

Target: T1, human P2X4 (Homo sapiens, UniProt Q99571)
T1 construct: expressed in transfected cells
T1 sequence (Q99571 1-388): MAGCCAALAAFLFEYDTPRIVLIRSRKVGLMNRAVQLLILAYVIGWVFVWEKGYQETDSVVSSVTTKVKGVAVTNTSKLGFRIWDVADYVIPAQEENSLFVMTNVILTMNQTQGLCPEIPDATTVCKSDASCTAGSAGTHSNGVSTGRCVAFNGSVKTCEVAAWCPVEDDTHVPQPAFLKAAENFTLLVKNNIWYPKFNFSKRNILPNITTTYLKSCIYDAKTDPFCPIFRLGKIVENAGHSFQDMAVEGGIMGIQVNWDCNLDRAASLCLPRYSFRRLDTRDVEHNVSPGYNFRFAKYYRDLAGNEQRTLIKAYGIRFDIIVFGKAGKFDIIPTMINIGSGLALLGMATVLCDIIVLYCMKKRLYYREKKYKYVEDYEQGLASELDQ
Assay: Human P2X4 HEK Cell FLIPR Assay
Assay type: cell-based
Settings: HEK293 stably expressing human P2X4, agonist Bz-ATP 3 μM (EC80); for IC50: read-out: Human P2X4 HEK Cells (FLIPR Assay) avg IC50
Protocol: Compounds were tested on a HEK293 cell line stably expressing human P2X4. Cells were cultured on poly-D-lysine-coated 384-well plates at a density of 15,000 cells/well and incubated overnight at 37° C., 5% CO2. P2X4 function was assessed by measuring intracellular calcium fluxes caused by Benzoylbenzoyl-ATP (Bz-ATP) using the calcium-chelating dye Fluo8-AM (Molecular Devices) with the Fluorescent Imaging Plate Reader Tetra (FLIPR^Tetra; Molecular Devices CA). On the day of the assay, the medium was removed and the cells were incubated for 30 min at 37° C. and 5% CO2 in 30 μl of dye buffer (Hank's balanced salt solution, 10 mM HEPES, 1.8 mM CaCl2, 1 mM MgCl2, 2 mM probenecid, 5 mM D-glucose monohydrate, 5 μM Fluo8-AM, pH=7.4). Compounds diluted in probenecid buffer (Hank's balanced salt solution, 10 mM HEPES, 1.8 mM CaCl2, 1 mM MgCl2, 2 mM probenecid, 5 mM D-glucose monohydrate, pH=7.4) at ten concentrations ranging from 25 μM to 1 nM (final concentration) were dispensed and incubated for 30 min at room temperature. […] The final assay volume was 50 μl and final DMSO concentration was 0.5%.
The fluorescence intensity reflecting intracellular calcium changes was recorded before and after Bz-ATP addition, at an excitation and emission wavelengths of 470-495 nm and 515-575 nm respectively.
The compounds were tested in triplicates and fluorescence intensity raw data normalized to the agonist control and fitted to the four-parameter logistic equation:
Y=Bottom+(Top−Bottom)/(1+10^((Log IC50−X)*HillSlope))
Assay plate acceptance was based on the signal window (S/B)[…] and the reference compound pIC50 within ±3σ the mean of historic pIC50 of the compound. Failure to meet two of the three criteria determined exclusion of the plate's results.

Row | Compound | Human P2X4 HEK Cells (FLIPR Assay) avg Efficacy | IC50
1 | CC(=O)N(c1cccc(C(F)(F)F)c1)c1cc(NC(=O)Cc2ccccc2Cl)ccn1 [Example 6, N-{4-[2-(2-chlorophenyl)acetamido]pyridin-2-yl}-N-[3-(trifluoromethyl)phenyl]acetamide] | 97% | 689 nM
2 | CC(=O)N(c1cccc(C(F)(F)F)c1)c1cc(NC(=O)Cc2ccc(F)cc2Cl)ccn1 [Example 7, N-{4-[2-(2-chloro-4-fluorophenyl)acetamido]pyridin-2-yl}-N-[3-(trifluoromethyl)phenyl]acetamide] | 97% | 846 nM
3 | CC(=O)N(c1cccc(C(F)(F)F)c1)c1cc(NC(=O)Cc2cccc(F)c2Cl)ccn1 [Example 8, N-{4-[2-(2-chloro-3-fluorophenyl)acetamido]pyridin-2-yl}-N-[3-(trifluoromethyl)phenyl]acetamide] | 97% | 681 nM
4 | CC(=O)N(c1cccc(C(F)(F)F)c1)c1cc(NC(=O)Cc2c(Cl)cccc2Cl)ccn1 [Example 9, N-{4-[2-(2,6-dichlorophenyl)acetamido]pyridin-2-yl}-N-[3-(trifluoromethyl)phenyl]acetamide] | 99% | 749 nM
5 | CC(=O)N(c1ccc(C#N)c(C(F)(F)F)c1)c1cc(NC(=O)Cc2ccccc2Cl)ccn1 [Example 10, N-{4-[2-(2-chlorophenyl)acetamido]pyridin-2-yl}-N-[4-cyano-3-(trifluoromethyl)phenyl]acetamide] | 94% | 
6 | CC(=O)N(c1ccc(C#N)c(C(F)(F)F)c1)c1cc(NC(=O)Cc2cccc(F)c2Cl)ccn1 [Example 11, N-{4-[2-(2-chloro-3-fluorophenyl)acetamido]pyridin-2-yl}-N-[4-cyano-3-(trifluoromethyl)phenyl]acetamide] | 100% | 
7 | CC(=O)N(c1ccc(C#N)c(C(F)(F)F)c1)c1cc(NC(=O)Cc2c(Cl)cccc2Cl)ccn1 [Example 12, N-[4-cyano-3-(trifluoromethyl)phenyl]-N-{4-[2-(2,6-dichlorophenyl)acetamido]pyridin-2-yl}acetamide] | 101% | 
8 | CC(=O)N(c1ccc(F)c(C#N)c1)c1cc(NC(=O)Cc2cccc(C(F)(F)F)c2Cl)ccn1 [Example 20, N-(4-{2-[2-chloro-3-(trifluoromethyl)phenyl]acetamido}pyridin-2-yl)-N-(3-cyano-4-fluorophenyl)acetamide] | 99% | 748 nM
9 | CC(=O)N(c1ccccc1)c1cc(NC(=O)Cc2c(F)cccc2Cl)ccn1 [Example 28, N-{4-[2-(2-chloro-6-fluorophenyl)acetamido]pyridin-2-yl}-N-phenylacetamide] | 91% | 777 nM
10 | CC(=O)N(c1ccc(F)cc1)c1cc(NC(=O)Cc2ccc(Cl)cc2C(F)(F)F)ccn1 [Example 31, N-(4-{2-[4-chloro-2-(trifluoromethyl)phenyl]acetamido}pyridin-2-yl)-N-(4-fluorophenyl)acetamide] | 100% | 909 nM
11 | CC(=O)N(c1ccc(F)cc1)c1cc(NC(=O)Cc2cccc(C(F)(F)F)c2Cl)ccn1 [Example 35, N-(4-{2-[2-chloro-3-(trifluoromethyl)phenyl]acetamido}pyridin-2-yl)-N-(4-fluorophenyl)acetamide] | 99% | 938 nM
12 | CCc1cc(Cl)c(CC(=O)Nc2ccnc(N(C(C)=O)c3ccc(F)c(F)c3)c2)c(Cl)c1 [Example 75, N-{4-[2-(2,6-dichloro-4-ethylphenyl)acetamido]pyridin-2-yl}-N-(3,4-difluorophenyl)acetamide] | 96% | 919 nM
13 | CC(=O)N(c1ccc(S(C)(=O)=O)c(F)c1)c1cc(NC(=O)Cc2cccc(F)c2Cl)ccn1 [Example 81, N-{4-[2-(2-chloro-3-fluorophenyl)acetamido]pyridin-2-yl}-N-[3-fluoro-4-(methanesulfonyl)phenyl]acetamide] | 97% | 895 nM

Now from value to molecule:

Row | Human P2X4 HEK Cells (FLIPR Assay) avg Efficacy | IC50 | Compound
14 | 98% | 657 nM | CC(=O)N(c1cccc(C(F)F)c1)c1cc(NC(=O)Cc2ccc(F)cc2Cl)ccn1 [Example 3, N-{4-[2-(2-chloro-4-fluorophenyl)acetamido]pyridin-2-yl}-N-[3-(difluoromethyl)phenyl]acetamide]
15 | 95% | 388 nM | CC(=O)N(c1ccc(Cl)c(C#N)c1)c1cc(NC(=O)Cc2ccccc2Cl)ccn1 [Example 16, N-(4-chloro-3-cyanophenyl)-N-{4-[2-(2-chlorophenyl)acetamido]pyridin-2-yl}acetamide]
16 | 99% | 638 nM | CC(=O)N(c1ccc(Cl)c(C#N)c1)c1cc(NC(=O)Cc2ccc(F)cc2Cl)ccn1 [Example 17, N-(4-chloro-3-cyanophenyl)-N-{4-[2-(2-chloro-4-fluorophenyl)acetamido]pyridin-2-yl)acetamide]
17 | 99% | 437 nM | CC(=O)N(c1ccc(Cl)c(C#N)c1)c1cc(NC(=O)Cc2cccc(F)c2Cl)ccn1 [Example 18, N-(4-chloro-3-cyanophenyl)-N-{4-[2-(2-chloro-3-fluorophenyl)acetamido]pyridin-2-yl}acetamide]
18 | 103% | 542 nM | CC(=O)N(c1ccc(Cl)c(C#N)c1)c1cc(NC(=O)Cc2c(Cl)cccc2Cl)ccn1 [Example 19, N-(4-chloro-3-cyanophenyl)-N-{4-[2-(2,6-dichlorophenyl)acetamido]pyridin-2-yl}acetamide]
19 | 100% | 406 nM | CC(=O)N(c1ccc(C)cc1)c1cc(NC(=O)Cc2ccccc2Cl)ccn1 [Example 43, N-{4-[2-(2-chlorophenyl)acetamido]pyridin-2-yl}-N-(4-methylphenyl)acetamide]
20 | 99% | 607 nM | CC(=O)N(c1ccc(C)cc1)c1cc(NC(=O)Cc2ccc(F)cc2Cl)ccn1 [Example 44, N-{4-[2-(2-chloro-4-fluorophenyl)acetamido]pyridin-2-yl}-N-(4-methylphenyl)acetamide]
21 | 103% | 551 nM | CC(=O)N(c1ccc(C)cc1)c1cc(NC(=O)Cc2c(Cl)cccc2Cl)ccn1 [Example 46, N-{4-[2-(2,6-dichlorophenyl)acetamido]pyridin-2-yl}-N-(4-methylphenyl)acetamide]
22 | 98% | 519 nM | CC(=O)N(c1ccc(OC(F)F)cc1)c1cc(NC(=O)Cc2ccccc2Cl)ccn1 [Example 47, N-{4-[2-(2-chlorophenyl)acetamido]pyridin-2-yl}-N-[4-(difluoromethoxy)phenyl]acetamide]
23 | 99% | 579 nM | CC(=O)N(c1ccc(OC(F)F)cc1)c1cc(NC(=O)Cc2cccc(F)c2Cl)ccn1 [Example 48, N-{4-[2-(2-chloro-3-fluorophenyl)acetamido]pyridin-2-yl}-N-[4-(difluoromethoxy)phenyl]acetamide]
24 | 100% | 520 nM | CC(=O)N(c1ccc(OC(F)F)cc1)c1cc(NC(=O)Cc2c(Cl)cccc2Cl)ccn1 [Example 49, N-{4-[2-(2,6-dichlorophenyl)acetamido]pyridin-2-yl}-N-[4-(difluoromethoxy)phenyl]acetamide]
25 | 98% | 604 nM | CC(=O)N(c1ccc(Cl)c(F)c1)c1cc(NC(=O)Cc2c(Cl)cccc2Cl)ccn1 [Example 61, N-(4-chloro-3-fluorophenyl)-N-{4-[2-(2,6-dichlorophenyl)acetamido]pyridin-2-yl)acetamide]
26 | 94% | 573 nM | COc1ccc(N(C(C)=O)c2cc(NC(=O)Cc3ccc(F)cc3Cl)ccn2)cc1F [Example 78, N-{4-[2-(2-chloro-4-fluorophenyl)acetamido]pyridin-2-yl}-N-(3-fluoro-4-methoxyphenyl)acetamide]
